Where two headings read alike, the source gives them in different places.
Experiments:
Format in all cases: biochemical
[1] = target: T1, MMP1 (Homo sapiens, UniProt P03956); assay: MMP-1 colorimetric inhibition assay (Enzo kit BML-AK404)
T1 sequence (P03956 100-269 limits assumed): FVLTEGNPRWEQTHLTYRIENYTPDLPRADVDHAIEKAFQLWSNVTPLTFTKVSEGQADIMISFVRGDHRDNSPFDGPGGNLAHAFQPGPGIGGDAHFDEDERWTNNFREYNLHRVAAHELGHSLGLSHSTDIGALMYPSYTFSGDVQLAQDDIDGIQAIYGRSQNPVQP
Procedure, shortened: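 Colorimetric kit run per manufacturer protocol. MMP-1 cleaves a thiopeptide substrate (Ac-PLG-[2-mercapto-4-methylpentanoyl]-LG-OC2H5); released thiol reacts with DTNB, monitored at 415 nm. IC50 (nM) from inhibition curves of normalized values.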

[2] = target: T2, ADAM10 (Homo sapiens, UniProt O14672); assay: SensoLyte 520 ADAM10 fluorometric activity assay (AnaSpec AS-72226)
T2 construct: purchased AnaSpec, Inc. AS-72226
T2 sequence (O14672 214-748): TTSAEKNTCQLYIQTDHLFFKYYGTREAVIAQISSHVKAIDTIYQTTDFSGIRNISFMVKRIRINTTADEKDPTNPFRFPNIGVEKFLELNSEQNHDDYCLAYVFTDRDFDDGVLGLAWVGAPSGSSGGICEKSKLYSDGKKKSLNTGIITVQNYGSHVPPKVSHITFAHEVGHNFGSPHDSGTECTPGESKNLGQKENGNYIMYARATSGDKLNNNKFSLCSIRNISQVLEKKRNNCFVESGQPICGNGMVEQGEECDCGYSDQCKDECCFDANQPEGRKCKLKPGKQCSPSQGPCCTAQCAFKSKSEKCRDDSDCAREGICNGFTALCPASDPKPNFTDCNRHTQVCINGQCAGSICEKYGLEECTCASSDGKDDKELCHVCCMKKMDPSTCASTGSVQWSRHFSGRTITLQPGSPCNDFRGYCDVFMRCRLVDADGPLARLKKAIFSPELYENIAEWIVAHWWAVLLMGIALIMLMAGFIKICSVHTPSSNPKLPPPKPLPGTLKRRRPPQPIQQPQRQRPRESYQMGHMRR
Procedure, shortened: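 ADAM10 activity was read by cleavage of a FRET peptide substrate (5-FAM/QXL 520), run per the kit protocol, with fluorescence at 495/520 nm. IC50 values (nM) came from inhibition curves of normalized data.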

[3] = target: MMP9 (Homo sapiens, UniProt P14780); assay: MMP-9 colorimetric inhibition assay (Enzo kit BML-AK410)
Procedure, shortened: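 Colorimetric thioester-substrate assay: hydrolysis of Ac-PLG-[2-mercapto-4-methylpentanoyl]-LG-OC2H5 frees a thiol that reacts with DTNB, read at 415 nm. Run per kit protocol. IC50 (nM) taken from inhibition curves of normalized values.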

[4] = target: T3, MMP13 (Homo sapiens, UniProt P45452); assay: MMP-13 colorimetric inhibition assay (Enzo kit BML-AK412)
T3 construct: purchased Enzo Life Sciences, Inc. BML-AK412
Procedure, shortened: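 Thiopeptide chromogenic substrate (Ac-PLG-[2-mercapto-4-methylpentanoyl]-LG-OC2H5); MMP-13 hydrolysis of the thioester yields a thiol that reacts with DTNB, read at 415 nm. IC50 values (nM) derived from inhibition curves of normalized data.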

[5] = target: ADAM17 (TACE) (Homo sapiens, UniProt P78536); assay: TACE fluorometric inhibition assay (Enzo kit BML-AK310)
Procedure, shortened: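 Kit-based TACE assay run per manufacturer's protocol, using quenched fluorogenic peptide Mca-PLAQAV-Dpa-RSSSR-NH2 whose cleavage raises Mca fluorescence. Signal read at ex/em 320/420 nm; IC50 (nM) derived from inhibition curves of normalized values.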

[6] = target: T4, MMP2 (Homo sapiens, UniProt P08253); assay: MMP-2 colorimetric inhibition assay (Enzo kit BML-AK408)
T4 sequence (P08253 110-660): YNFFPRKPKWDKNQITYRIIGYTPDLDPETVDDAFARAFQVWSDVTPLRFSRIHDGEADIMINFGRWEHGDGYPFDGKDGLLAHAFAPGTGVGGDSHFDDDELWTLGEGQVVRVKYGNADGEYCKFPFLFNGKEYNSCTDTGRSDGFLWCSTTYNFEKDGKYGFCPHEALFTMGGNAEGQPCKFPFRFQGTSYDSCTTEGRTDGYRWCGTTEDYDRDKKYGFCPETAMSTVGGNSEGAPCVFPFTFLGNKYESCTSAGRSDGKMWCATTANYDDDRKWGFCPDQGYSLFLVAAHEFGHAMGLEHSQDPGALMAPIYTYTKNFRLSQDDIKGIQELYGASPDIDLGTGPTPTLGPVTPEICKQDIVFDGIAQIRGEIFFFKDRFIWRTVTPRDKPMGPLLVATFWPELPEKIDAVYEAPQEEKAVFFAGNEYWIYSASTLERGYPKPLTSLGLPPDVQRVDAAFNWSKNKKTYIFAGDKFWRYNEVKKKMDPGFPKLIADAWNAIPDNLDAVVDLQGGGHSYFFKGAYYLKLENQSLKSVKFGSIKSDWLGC
Procedure, shortened: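 Cleavage of the thiopeptide Ac-PLG-[2-mercapto-4-methylpentanoyl]-LG-OC2H5 releases a sulfhydryl that reacts with DTNB, read at 415 nm per the kit protocol. IC50 values (nM) come from inhibition curves of normalized data.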

[7] = thiopeptide substrate, absorbance 415 nm, read-out: MMP 1 IC50 class
[8] = FRET peptide substrate, ex/em 495/520 nm, read-out: ADAM 10 IC50 class
[9] = thiopeptide substrate, absorbance 415 nm, read-out: MMP 9 IC50 class
[10] = thiopeptide substrate, absorbance 415 nm, read-out: MMP 13 IC50 class
[11] = quenched fluorogenic peptide, ex/em 320/420 nm, read-out: TACE IC50 class
[12] = thiopeptide substrate, absorbance 415 nm, read-out: MMP 2 IC50 class

Chain of MMP9 (P14780 94-707): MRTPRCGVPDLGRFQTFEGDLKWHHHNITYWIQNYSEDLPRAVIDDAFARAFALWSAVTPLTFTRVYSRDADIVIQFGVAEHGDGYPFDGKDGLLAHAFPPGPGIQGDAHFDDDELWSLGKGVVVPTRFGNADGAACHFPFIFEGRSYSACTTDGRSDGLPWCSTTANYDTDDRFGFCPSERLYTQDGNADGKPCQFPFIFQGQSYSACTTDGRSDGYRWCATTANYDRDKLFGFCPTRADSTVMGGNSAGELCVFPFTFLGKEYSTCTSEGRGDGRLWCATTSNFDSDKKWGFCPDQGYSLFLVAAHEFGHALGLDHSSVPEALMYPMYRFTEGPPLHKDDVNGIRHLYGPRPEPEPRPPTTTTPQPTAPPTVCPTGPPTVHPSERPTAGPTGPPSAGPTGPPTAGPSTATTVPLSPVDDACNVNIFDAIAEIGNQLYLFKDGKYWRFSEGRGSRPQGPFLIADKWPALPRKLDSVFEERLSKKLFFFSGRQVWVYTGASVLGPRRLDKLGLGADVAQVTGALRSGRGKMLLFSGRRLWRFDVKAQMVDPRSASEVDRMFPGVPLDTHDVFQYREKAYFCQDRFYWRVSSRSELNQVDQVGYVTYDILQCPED
Chain of ADAM17 (TACE) (P78536 215-477 limits assumed): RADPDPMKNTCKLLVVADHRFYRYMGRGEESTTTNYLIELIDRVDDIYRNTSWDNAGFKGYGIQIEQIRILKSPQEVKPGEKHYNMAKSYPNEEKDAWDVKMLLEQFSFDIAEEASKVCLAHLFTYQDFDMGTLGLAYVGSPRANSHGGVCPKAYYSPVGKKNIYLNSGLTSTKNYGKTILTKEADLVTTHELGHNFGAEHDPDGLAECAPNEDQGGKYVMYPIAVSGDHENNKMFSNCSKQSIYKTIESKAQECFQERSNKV

| Structure (SMILES) | IC50 [1, 7] [nM] | IC50 [2, 8] [nM] | IC50 [3, 9] [nM] | IC50 [4, 10] [nM] | IC50 [5, 11] [nM] | IC50 [6, 12] [nM] | IC50 [1] [nM] | IC50 [2] [nM] | IC50 [3] [nM] | IC50 [4] [nM] | IC50 [5] [nM] | IC50 [6] [nM] |
| --- | --- | --- | --- | --- | --- | --- | --- | --- | --- | --- | --- | --- |
| CC(C)OC(=O)N1[C@@H]2CC[C@H]1[C@H](C(=O)NO)N(S(=O)(=O)c1ccc(Oc3ccc(F)cc3)nc1)C2 [Example 67, isopropyl (1S,2R,5R)-3-((6-(4-fluorophenoxy)-pyridin-3-yl)-sulfonyl)-2-(hydroxycarbamoyl)-3,8-diazabicyclo-[3.2.1]octane-8-carboxylate] | 50 to 1000 | > 10000 | < 50 | < 50 | 1000 to 10000 | < 50 | – | – | – | – | – | – |
| O=C(NO)[C@H]1[C@@H]2CC[C@H](CN1S(=O)(=O)c1ccc(Oc3ccc(OC(F)(F)F)cc3)nc1)N2C(=O)N1CCOCC1 [Example 70, (1S,2R,5R)-N-hydroxy-8-(morpholine-4-carbonyl)-3-((6-(4-(trifluoromethoxy)-phenoxy)pyridin-3-yl)sulfonyl)-3,8-diazabicyclo[3.2.1]-octane-2-carboxamide] | > 10000 | > 10000 | < 50 | < 50 | 1000 to 10000 | < 50 | – | – | – | – | – | – |
| O=C(NO)[C@H]1[C@@H]2CC[C@H](CN1S(=O)(=O)c1ccc(Oc3ccc(OCC(F)(F)F)cc3)nc1)N2C(=O)N1CCOCC1 [Example 72, (1S,2R,5R)-N-hydroxy-8-(morpholine-4-carbonyl)-3-((6-(4-(2,2,2-trifluoroethoxy)-phenoxy)pyridin-3-yl)sulfonyl)-3,8-diazabicyclo[3.2.1]-octane-2-carboxamide] | – | – | – | – | – | – | 1000 to 10000 | > 10000 | < 50 | < 50 | > 10000 | < 50 |
| COc1ccc(Oc2ccc(S(=O)(=O)N3C[C@H]4CC[C@@H]([C@@H]3C(=O)NO)N4C(=O)N3CCOCC3)cn2)cc1F [Example 73, (1S,2R,5R)-3-((6-(3-fluoro-4-methoxy-phenoxy)pyridin-3-yl)-sulfonyl)-N-hydroxy-8-(morpholine-4-carbonyl)-3,8-diazabicyclo[3.2.1]-octane-2-carboxamide] | > 10000 | 1000 to 10000 | < 50 | < 50 | 1000 to 10000 | < 50 | – | – | – | – | – | – |
